Measured values from patent publication US9388208B2, “Pyrrolo[1,2-f][1,2,4]triazines useful for treating respiratory syncitial virus infections” (Gilead Sciences, Inc., priority 2013, dated 2016).
Read-outs that look alike come from different tables or passages of the source.

What was measured:
[1] = target: T1, RSV ribonucleoprotein (RNP) complexes (Human respiratory syncytial virus A, UniProt P28887); experiment: RSV RNP assay (inhibition of RSV RNP transcription); assay type: biochemical, RSV A2; conditions: 90 minute incubation at 30° C., total radiolabeled transcripts
T1 construct: The supernatant (S3) fraction, containing the enriched RSV RNP complexes, was collected; endogenous in cells; host or cells: HEp-2 cells infected with RSV A2; detergent-extracted crude S3 fraction
T1 sequence (P28887 whole entry): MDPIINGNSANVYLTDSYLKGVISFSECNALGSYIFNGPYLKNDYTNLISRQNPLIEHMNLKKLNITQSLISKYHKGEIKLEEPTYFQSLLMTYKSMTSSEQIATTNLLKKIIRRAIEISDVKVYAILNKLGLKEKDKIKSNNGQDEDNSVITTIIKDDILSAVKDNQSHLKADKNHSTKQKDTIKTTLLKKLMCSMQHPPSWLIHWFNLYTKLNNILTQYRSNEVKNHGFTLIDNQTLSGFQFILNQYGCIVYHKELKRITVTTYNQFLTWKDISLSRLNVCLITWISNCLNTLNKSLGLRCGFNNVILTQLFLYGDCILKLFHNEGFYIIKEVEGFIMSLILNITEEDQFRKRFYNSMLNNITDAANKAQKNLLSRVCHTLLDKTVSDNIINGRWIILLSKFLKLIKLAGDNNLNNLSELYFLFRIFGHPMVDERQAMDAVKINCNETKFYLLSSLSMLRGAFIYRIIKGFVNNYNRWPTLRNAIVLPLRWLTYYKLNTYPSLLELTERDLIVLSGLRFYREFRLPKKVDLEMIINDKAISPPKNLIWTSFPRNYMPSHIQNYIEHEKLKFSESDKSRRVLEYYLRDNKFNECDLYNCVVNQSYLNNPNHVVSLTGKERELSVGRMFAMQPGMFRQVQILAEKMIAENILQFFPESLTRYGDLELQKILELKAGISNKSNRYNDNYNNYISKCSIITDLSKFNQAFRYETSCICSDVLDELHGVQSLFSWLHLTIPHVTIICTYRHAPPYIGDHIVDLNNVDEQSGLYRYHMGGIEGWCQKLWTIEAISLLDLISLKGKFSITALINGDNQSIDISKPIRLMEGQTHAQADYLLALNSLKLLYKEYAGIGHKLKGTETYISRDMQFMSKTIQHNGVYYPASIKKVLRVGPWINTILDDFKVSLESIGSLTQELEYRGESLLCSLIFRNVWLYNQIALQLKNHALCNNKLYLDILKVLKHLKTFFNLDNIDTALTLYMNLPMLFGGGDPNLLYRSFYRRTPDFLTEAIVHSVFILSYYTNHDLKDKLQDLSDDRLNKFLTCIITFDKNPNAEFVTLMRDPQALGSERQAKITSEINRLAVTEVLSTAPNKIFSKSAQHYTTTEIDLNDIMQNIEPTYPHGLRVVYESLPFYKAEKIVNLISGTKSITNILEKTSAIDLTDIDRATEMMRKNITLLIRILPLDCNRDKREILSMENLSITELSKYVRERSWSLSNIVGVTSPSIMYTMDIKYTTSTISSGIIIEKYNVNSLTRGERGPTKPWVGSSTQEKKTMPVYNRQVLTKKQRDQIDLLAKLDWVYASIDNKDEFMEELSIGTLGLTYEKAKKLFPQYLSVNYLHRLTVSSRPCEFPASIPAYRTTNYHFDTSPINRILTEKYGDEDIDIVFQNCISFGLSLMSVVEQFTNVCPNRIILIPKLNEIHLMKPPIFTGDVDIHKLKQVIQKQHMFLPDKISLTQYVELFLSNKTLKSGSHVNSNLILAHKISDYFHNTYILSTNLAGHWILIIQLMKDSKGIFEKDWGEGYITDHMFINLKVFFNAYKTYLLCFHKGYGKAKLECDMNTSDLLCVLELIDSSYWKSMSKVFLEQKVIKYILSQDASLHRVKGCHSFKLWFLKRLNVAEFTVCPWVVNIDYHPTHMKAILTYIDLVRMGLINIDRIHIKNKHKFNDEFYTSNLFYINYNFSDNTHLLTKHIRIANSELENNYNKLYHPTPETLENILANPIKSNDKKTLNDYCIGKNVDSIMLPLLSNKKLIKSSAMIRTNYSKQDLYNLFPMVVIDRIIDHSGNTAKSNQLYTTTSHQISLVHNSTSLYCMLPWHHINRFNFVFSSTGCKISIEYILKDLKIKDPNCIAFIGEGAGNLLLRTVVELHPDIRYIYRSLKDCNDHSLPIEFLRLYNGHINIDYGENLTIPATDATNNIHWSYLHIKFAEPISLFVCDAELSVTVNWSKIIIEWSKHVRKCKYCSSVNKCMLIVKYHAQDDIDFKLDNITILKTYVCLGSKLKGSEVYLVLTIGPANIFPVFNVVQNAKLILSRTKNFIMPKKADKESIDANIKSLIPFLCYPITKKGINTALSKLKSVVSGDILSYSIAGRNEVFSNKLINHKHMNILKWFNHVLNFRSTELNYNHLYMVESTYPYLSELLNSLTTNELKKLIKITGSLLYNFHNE
T1 sequence (P03421 whole entry, further chain): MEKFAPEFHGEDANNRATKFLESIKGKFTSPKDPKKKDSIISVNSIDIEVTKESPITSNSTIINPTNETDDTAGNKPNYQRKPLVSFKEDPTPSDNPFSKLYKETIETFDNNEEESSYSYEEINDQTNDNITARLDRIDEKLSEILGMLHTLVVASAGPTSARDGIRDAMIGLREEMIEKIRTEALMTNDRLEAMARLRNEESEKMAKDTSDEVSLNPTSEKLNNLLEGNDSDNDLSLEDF
Description: RSV ribonucleoprotein (RNP) complexes were prepared from a method modified from Mason at al (1). HEp-2 cells were plated at a density of 7.1×10^4 cells/cm^2 in MEM+10% fetal bovine serum (FBS) and allowed to attach overnight at 37° C. (5% CO2). Following attachment, the cells were infected with RSV A2 (M01=5) in 35 mL MEM+2% FBS. At 20 hours post-infection, the media was replaced with MEM+2% FBS supplemented with 2 μg/mL actinomycin D and returned to 37° C. for one hour. The cells were then washed once with PBS and treated with 35 mL of PBS+250 μg/mL lyso-lecithin for one minute, after which all liquid was aspirated. The cells were harvested by scrapping them into 1.2 mL of buffer A [50 mM TRIS acetate (pH 8.0), 100 mM potassium acetate, 1 mM DTT and 2 μg/mL actinomycin D] and lysed by repeated passage through an 18 gauge needle (10 times). The cell lysate was placed in ice for 10 minutes and then centrifuged at 2400g for 10 minutes at 4° C. The supernatant (S1) was removed and the pellet (P1) was disrupted in 600 uL of Buffer B [10 mM TRIS acetate (pH 8.0), 10 mM potassium acetate and 1.5 mM MgCl2] supplemented with 1% Triton X-100 by repeated passage through an 18 gauge needle (10 times). The resuspended pellet was placed in ice for 10 minutes and then centrifuged at 2400g for 10 minutes at 4° C. The supernatant (S2) was removed and the pellet (P2) was disrupted in 600 uL of Buffer B supplemented with 0.5% deoxycholate and 0.1% Tween 40. The resuspended pellet was placed in ice for 10 minutes and then centrifuged at 2400g for 10 minutes at 4° C. The supernatant (S3) fraction, containing the enriched RSV RNP complexes, was collected and the protein concentration determined by UV absorbance at 280 nm. Aliquoted RSV RNP S3 fractions were stored at −80° C.
Transcription reactions contained 25 μg of crude RSV RNP complexes in 30 μL of reaction buffer [50 mM TRIS-acetate (pH 8.0), 120 mM potassium acetate, 5% glycerol, 4.5 mM MgCl2, 3 mM DTT, 2 mM ethyleneglycol-bis(2-aminoethylether)-tetraacetic acid (EGTA), 50 μg/mL BSA, 2.5 U RNasin (Promega), ATP, GTP, UTP, CTP and 1.5 uCi [α-^32P] NTP (3000 Ci/mmol)]. The radiolabeled nucleotide used in the transcription assay was selected to match the nucleotide analog being evaluated for inhibition of RSV RNP transcription. Cold, competitive NTP was added at a final concentration of one-half its Km (ATP=20 μM, GTP=12.5 μM, UTP=6 μM and CTP=2 μM). The three remaining nucleotides were added at a final concentration of 100 μM.
To determine whether nucleotide analogs inhibited RSV RNP transcription, compounds were added using a 6 step serial dilution in 5-fold increments. Following a 90 minute incubation at 30° C., the RNP reactions were stopped with 350 μL of Qiagen RLT lysis buffer and the RNA was purified using a Qiagen RNeasy 96 kit. Purified RNA was denatured in RNA sample loading buffer (Sigma) at 65° C. for 10 minutes and run on a 1.2% agarose/MOPS gel containing 2M formaldehyde. The agarose gel was dried and exposed to a Storm phosphorimager screen and developed using a Storm phosphorimager (GE Healthcare). The concentration of compound that reduced total radiolabeled transcripts by 50% (IC50) was calculated by non-linear regression analysis of two replicates.

[2] = Cytotoxicity assay in MT-4 cells; assay type: cell-based; conditions: human, Cell-Titer Glo
Description: The MT-4 cell line was obtained from the NIH AIDS Research and Reference Reagent Program (Germantown, Md.) and cultured in RPMI-1640 medium (Irvine Scientific, Santa Ana, Calif., Cat #9160) supplemented with 10% FBS, 100 units/mL penicillin, 100 units/mL streptomycin, and 2 mM L-Glutamine. The MT-4 cells were passaged twice per week to maintain cell densities below 0.6×10^6 cells/mL. Complete RPMI-1640 media containing 100× concentrations of 3-fold serially diluted compound, ranging from 26 nM to 530 μM, were stamped in quadruplicate into black 384-well plates. After compound addition, 2×10^3 MT-4 cells were added to each well using a MicroFlo liquid dispenser (BioTek, Winooski, Vt.) and the cells were cultured for 5 days at 37° C. in a 5% CO2 incubator. Following the incubation the cells were allowed to equilibrate to 25° C. and cell viability was determined by adding 25 μL of Cell-Titer Glo viability reagent. The mixture was incubated for 10 minutes at 25° C., and the luminescence signal was quantified on a Victor Luminescence plate reader. The CC50 value is defined as the concentration of compound that reduces cell viability by 50% as determined by the Cell-Titer Glo signal. The data were analyzed using Pipeline Pilot Plate Data Analytics Collection software (Version 7.0, Accelrys, San Diego, Calif.). CC50 values were calculated from a non-linear regression analysis using a 4-parameter sigmoidal dose-response equation: Y=Bottom+(Top−Bottom)/(1+10^[(Log CC50−X)*HillSlope]) where the Top and Bottom were fixed at 100% and 0% cell viability, respectively. CC50 values were calculated as the average±standard deviation of 3 independent experiments.

[3] = Cytotoxicity assay in HEp-2 cells; assay type: cell-based; conditions: human, uninfected HEp-2 cells, CellTiter Glo
Description: Cytotoxicity of tested compounds is determined in uninfected HEp-2 cells in parallel with the antiviral activity using the cell viability reagent in a similar fashion as described before for other cell types (Cihlar et al., Antimicrob Agents Chemother. 2008, 52(2):655-65.). The same protocol as for the determination of antiviral activity is used for the measurement of compound cytotoxicity except that the cells are not infected with RSV. Instead, an uninfected cell mixture at the same density is added at 20 ul/well to plates containing prediluted compounds, also at 100 nl/sample. Assay plates are then incubated for 4 days followed by a cell viability test using the same CellTiter Glo reagent addition and measurement of luminescent readouts. Untreated cell and cells treated at 2 uM puromycin (Sigma, St. Louis, Mo.) serve as 100% and 0% cell viability control, respectively. The percent of cell viability is calculated for each tested compound concentration relative to the 0% and 100% controls and the CC50 value is determined by non-linear regression as a compound concentration reducing the cell viability by 50%.

RSV strain A2 = experiment: Anti-RSV activity, infectious cytopathic cell protection assay in HEp-2 cells; assay type: cell-based, Respiratory Syncytial Virus (RSV); conditions: human respiratory syncytial virus
Description: Antiviral activity against RSV is determined using an infectious cytopathic cell protection assay in HEp-2 cells. In this assay, compounds inhibiting viral infection and/or replication produce a cytoprotective effect against the virus-induced cell killing that can be quantified using a cell viability reagent. The techniques used here are novel adaptations of methods described in published literature (Chapman et al., Antimicrob Agents Chemother. 2007, 51(9):3346-53.)
HEp-2 cells are obtained from ATCC (Manassas, VI) and maintained in MEM media supplemented with 10% fetal bovine serum and penicillin/streptomycin. Cells are passaged twice a week and kept at subconfluent stage. Commercial stock of RSV strain A2 (Advanced Biotechnologies, Columbia, Md.) is titered before compound testing to determine the appropriate dilution of the virus stock that generates desirable cytopathic effect in HEp-2 cells.
For antiviral tests, HEp-2 cells are grown in large cell culture flasks to near confluency but not fully so. The compounds to be tested are prediluted in DMSO in 384-well compound dilution plates, either in an 8 or 40 sample per plate standardized dose response format. 3-fold serial dilution increments of each test compound are prepared in the plates and test samples are transferred via acoustic transfer apparatus (Echo, Labcyte) at 100 nl per well into cell culture assay 384-well plates. Each compound dilution is transferred in single or quadruplicate samples into dry assay plates, which are stored until assay is ready to go. The positive and negative controls are laid out in opposite on ends of the plate in vertical blocks (1 column).
Subsequently, an infectious mixture is prepared using an appropriate dilution of virus stock previously determined by titration with cells at a density of 50,000/ml and 20 uL/well is added to test plates w/compounds via automation (uFlow, Biotek). Each plate includes negative and positive controls (16 replicates each) to create 0% and 100% virus inhibition standards, respectively. Following the infection with RSV, testing plates are incubated for 4 days in a 37° C. cell culture incubator. After the incubation, a cell viability reagent, Cell TiterGlo (Promega, Madison, Wis.) is added to the assay plates, which are incubated briefly, and a luminescent readout is measured (Envision, Perkin Elmer) in all the assay plates. The RSV-induced cytopathic effect, percentage inhibition, is determined from the levels of remaining cell viability. These numbers are calculated for each tested concentration relative to the 0% and 100% inhibition controls, and the EC50 value for each compound is determined by non-linear regression as a concentration inhibiting the RSV-induced cytopathic effect by 50%. Various potent anti-RSV tool compounds are used as positive controls for antiviral activity.

[4] = 96 h, HEp-2 cells infected with RSV A2, 4 days, Cell TiterGlo, read-out: EC50
[5] = HEp-2 anti-RSV activity, read-out: EC50 (HEp-2 anti-RSV activity)

Row | Structure (SMILES) | IC50 [1] | CC50 at 5 days [2] | CC50 at 4 days [3] | EC50 (RSV strain A2; HEp-2, 96 h) | EC50 (RSV strain A2; [4]) | EC50 (RSV strain A2; [5])
1 | N#C[C@]1(COP(=O)(O)OP(=O)(O)OP(=O)(O)O)O[C@@H](c2cc(F)c3c(N)ncnn23)[C@H](O)[C@@H]1O [Example 32, ((2R,3S,4R,5S)-5-(4-amino-5-fluoropyrrolo[2,1f-][1,2,4]triazin-7-yl)-2-cyano-3,4-dihydroxytetrahydrofuran-2-yl)methyl tetrahydrogen triphosphate] | 0.022 µM | – | – | – | – | –
2 | CC[C@]1(COP(=O)(O)OP(=O)(O)OP(=O)(O)O)O[C@@H](c2ccc3c(N)ncnn23)[C@H](F)[C@@H]1O [Example 18, ((2R,3R,4R,5S)-5-(4-aminopyrrolo[2,1-f][1,2,4]triazin-7-yl)-2-ethyl-4-fluoro-3-hydroxytetrahydrofuran-2-yl)methyl tetrahydrogen triphosphate] | 0.42 µM | – | – | – | – | –
3 | C[C@@]1(O)[C@H](O)[C@@H](COP(=O)(O)OP(=O)(O)OP(=O)(O)O)O[C@H]1c1ccc2c(N)ncnn12 [((2R,3R,4R,5S)-5-(4-aminopyrrolo[2,1-f][1,2,4]triazin-7-yl)-3,4-dihydroxy-4-methyltetrahydrofuran-2-yl)methyl tetrahydrogen triphosphate, reference compound] | 8.5 µM | – | – | – | – | –
4 | [N-]=[N+]=N[C@]1(COP(=O)(O)OP(=O)(O)OP(=O)(O)O)O[C@@H](c2cc(F)c3c(N)ncnn23)[C@H](F)[C@@H]1O [Example 28, ((2R,3R,4R,5S)-5-(4-amino-5-fluoropyrrolo[2,1f-][1,2,4]triazin-7-yl)-2-azido-4-fluoro-3-hydroxytetrahydrofuran-2-yl)methyl tetrahydrogen triphosphate] | 0.086 µM | – | – | – | – | –
5 | [N-]=[N+]=N[C@]1(COP(=O)(O)OP(=O)(O)OP(=O)(O)O)O[C@@H](c2ccc3c(N)nc(F)nn23)[C@H](F)[C@@H]1O [Example 29, ((2R,3R,4R,5S)-5-(4-amino-2-fluoropyrrolo[2,1-f][1,2,4]triazin-7-yl)-2-azido-4-fluoro-3-hydroxytetrahydrofuran-2-yl)methyl tetrahydrogen triphosphate] | 0.08 µM | – | – | – | – | –
6 | CCC(CC)COC(=O)[C@H](C)NP(=O)(OC[C@@]1(N=[N+]=[N-])O[C@@H](c2ccc3c(N)ncnn23)[C@H](O)[C@@H]1O)Oc1ccccc1 (stereo partly drawn) [Example 16, (2S)-2-ethylbutyl 2-(((((2R,3S,4R,5S)-5-(4-aminopyrrolo[2,1-f][1,2,4]triazin-7-yl)-2-azido-3,4-dihydroxytetrahydrofuran-2-yl)methoxy)(phenoxy)phosphoryl)amino)propanoate] | – | 25 µM | 18 µM | 0.3 µM | – | –
7 | C=C[C@]1(CO)O[C@@H](c2ccc3c(N)ncnn23)[C@H](F)[C@@H]1O [Example 13, (2R,3R,4R,5S)-5-(4-aminopyrrolo[1,2-f][1,2,4]triazin-7-yl)-4-fluoro-2-(hydroxymethyl)-2-vinyltetrahydrofuran-3-ol] | – | > 106 µM | > 100 µM | – | 10.5 µM | < 100 µM
8 | C[C@]1(CO)O[C@@H](c2ccc3c(N)ncnn23)[C@H](O)[C@@H]1O [Example 4, (2R,3S,4R,5S)-5-(4-aminopyrrolo[1,2-f][1,2,4]triazin-7-yl)-2-(hydroxymethyl)-2-methyltetrahydrofuran-3,4-diol] | – | > 53 µM | > 50 µM | – | 30 µM | –
9 | [N-]=[N+]=N[C@]1(CO)O[C@@H](c2cc(F)c3c(N)ncnn23)[C@H](F)[C@@H]1O [Example 21, (2R,3R,4R,5S)-5-(4-amino-5-fluoropyrrolo[2,1-f][1,2,4]triazin-7-yl)-2-azido-4-fluoro-2-(hydroxymethyl)tetrahydrofuran-3-ol] | – | 15 µM | 36 µM | – | 50 µM | < 100 µM
